In patent publication US7691875B2, “Imidazopyridine compounds, processes for their preparation and therapeutic uses thereof” (AstraZeneca AB, priority 2003, dated 2010):
Values after ≈ are worked out from the molar mass of the structure shown.

Experiments:
[1] = Solubility in Fasted State Simulated Intestinal Fluid (FaSSIF); type: physicochemical; details: thermodynamic from solid, FaSSIF pH 6.5, 37° C., measured after 24 hours
Procedure: Solubility in Fasted State Simulated Intestinal Fluid (FaSSIF)
The method describes a procedure to measure solubility of solid material in PaSSIF (Fasted State Simulated Intestinal Fluid). The FaSSIF solution is an isotonic phosphate buffer where pH is adjusted to 6.5 to reflect pH in the jejunum. Taurocholic acid and lecithin is added to a concentration of 3 mmol/l and 0.75 mmol/l respectively.
1 mg of solid material, i.e. of the compound of invention, is added to 1 ml FaSSIF solution and equilibrated at 37° C. Samples are withdrawn after 1 and 24 hours. The samples are transferred to eppendorf tubes and spun at 10000 G and 37° C. for 10 minutes. A suitable volume of the supernatant is removed and diluted to a suitable concentration. The concentrations of the compounds in the samples are analysed with LC/UV/MS.

[2] = tested on: isolated rabbit gastric glands; assay: Acid secretion inhibition in isolated rabbit gastric glands; type: cell-based; details: Oryctolagus cuniculus, in vitro
Procedure: Acid Secretion Inhibition in Isolated Rabbit Gastric Glands
Inhibiting effect on acid secretion in vitro in isolated rabbit gastric glands was measured as
described by Berglindh et al. (1976) Acta Physiol. Scand. 97, 401-414.

H+,K+-ATPase = H+,K+-ATPase (Homo sapiens, UniProt P20648); assay: Determination of H+,K+-ATPase activity (membrane vesicles, phosphate release); type: biochemical; details: 15 min, 37° C., pH 7.4, 10 mM KCl, 2 mM ATP
Procedure: Detennination of H^+,K^+-ATPase Activity
Membrane vesicles (2.5 to 5 μg) were incubated for 15 min at +37° C. in 18 mM Pipes/Tris buffer pH 7.4 containing 2 mM MgCl2, 10 mM KCl and 2 mM ATP. The ATPase activity was estimated as release of inorganic phosphate from ATP, as described by LeBel et al. (1978) Anal. Biochem. 85, 86-89.

[3] = Bioavailability in the conscious dog; type: in vivo; details: plasma
Procedure: Bioavailabiity is assessed by calculating the quotient between the area under blood/plasma concentration (AUC) curve following (i) intraduodenal (i.d.) or oral (p.o.) administration and (ii) intravenous (i.v.) administration from the rat or the dog, respectively.
The area under the blood concentration vs. time curve, AUC, is determined by the log/linear trapezoidal rule and extrapolated to infinity by dividing the last determined blood concentration by the elimination rate constant in the terminal phase. The systemic bioavailability (F%) following intraduodenal or oral administration is calculated as F(%)=(AUC (p.o. or i.d.)/AUC (i.v.))×100.
(§1) Inhibition of Gastric Acid Secretion and Bioavailability in the Conscious Dog.
Blood samples for the analysis of test compound concentration in plasma are taken at intervals up to 4 h after dosing. Plasma is separated and frozen within 30 min after collection and later analyzed. The systemic bioavailability (F%) after oral or i.d. administration is calculated as described above in the rat model.

[4] = tested on: histamine-stimulated acid secretion; assay: Inhibition of histamine-stimulated gastric acid secretion in the conscious Heidenhain pouch dog; type: in vivo; details: 1-3 hours after dosing, mean n=2
Procedure: as §1
Labrador retriever or Harrier dogs of either sex are used. They are equipped with a duodenal fistula for the administration of test compounds or vehicle and a cannulated gastric fistula or a Heidenhaim-pouch for the collection of gastric secretion.
Before secretory tests the animals are fasted for about 18 h but water is freely allowed. Gastric acid secretion is stimulated for up to 6.5 h infusion of histamine dihydrochloride (12 ml/h) at a dose producing about 80 % of the individual maximal secretory response, and gastric juice collected in consecutive 30-min fractions. Test substance or vehicle is given orally, i.d. or i.v., 1 or 1.5 h after starting the histamine infusion, in a volume of 0.5 ml/kg body weight. In the case of oral administration, it should be pointed out that the test compound is administered to the acid secreting main stomach of the Heidenham-pouch dog.
The acidity of the gastric juice samples are determined by titration to pH 7.0, and the acid output calculated. The acid output in the collection periods after administration of test substance or vehicle are expressed as fractional responses, setting the acid output in the fraction preceding administration to 1.0. Percentage inhibition is calculated from fractional responses elicited by test compound and vehicle.

Sequence of H+,K+-ATPase (P20648 whole entry): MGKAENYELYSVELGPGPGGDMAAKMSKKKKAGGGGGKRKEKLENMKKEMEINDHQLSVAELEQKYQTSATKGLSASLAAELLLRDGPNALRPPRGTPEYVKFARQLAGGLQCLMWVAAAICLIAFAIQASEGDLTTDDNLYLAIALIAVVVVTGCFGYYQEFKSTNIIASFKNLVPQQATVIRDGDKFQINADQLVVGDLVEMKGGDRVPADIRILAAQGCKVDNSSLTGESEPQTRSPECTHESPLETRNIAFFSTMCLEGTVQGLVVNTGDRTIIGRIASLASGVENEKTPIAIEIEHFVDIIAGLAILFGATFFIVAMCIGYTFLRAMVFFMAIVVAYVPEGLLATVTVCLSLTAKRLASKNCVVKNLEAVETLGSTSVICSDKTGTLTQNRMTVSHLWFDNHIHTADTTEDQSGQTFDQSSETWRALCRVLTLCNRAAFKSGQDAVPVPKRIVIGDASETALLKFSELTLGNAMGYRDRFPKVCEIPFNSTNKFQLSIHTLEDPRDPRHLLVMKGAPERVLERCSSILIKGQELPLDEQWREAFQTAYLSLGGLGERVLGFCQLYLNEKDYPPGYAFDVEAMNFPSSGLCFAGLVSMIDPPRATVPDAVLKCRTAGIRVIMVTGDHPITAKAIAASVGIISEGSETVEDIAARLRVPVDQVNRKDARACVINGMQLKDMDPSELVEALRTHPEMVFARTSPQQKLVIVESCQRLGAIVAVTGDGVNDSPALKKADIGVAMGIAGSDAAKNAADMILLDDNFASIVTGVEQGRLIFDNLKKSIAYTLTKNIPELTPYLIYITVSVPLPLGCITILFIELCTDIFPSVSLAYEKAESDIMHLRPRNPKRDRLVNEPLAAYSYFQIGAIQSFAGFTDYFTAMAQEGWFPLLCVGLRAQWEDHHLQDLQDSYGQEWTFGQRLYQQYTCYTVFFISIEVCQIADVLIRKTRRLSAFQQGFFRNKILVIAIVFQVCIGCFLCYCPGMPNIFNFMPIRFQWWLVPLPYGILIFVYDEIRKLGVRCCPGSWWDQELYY
Sequence of H+,K+-ATPase (P51164 whole entry partner): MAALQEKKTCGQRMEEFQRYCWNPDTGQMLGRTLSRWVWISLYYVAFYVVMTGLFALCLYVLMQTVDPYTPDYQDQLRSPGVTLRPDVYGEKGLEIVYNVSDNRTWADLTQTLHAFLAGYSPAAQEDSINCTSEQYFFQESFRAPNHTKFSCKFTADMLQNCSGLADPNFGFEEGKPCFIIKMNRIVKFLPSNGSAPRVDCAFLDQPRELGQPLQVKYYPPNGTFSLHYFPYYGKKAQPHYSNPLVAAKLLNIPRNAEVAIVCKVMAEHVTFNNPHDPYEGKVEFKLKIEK

solubility at 24 h [1] [µM]	IC50 [2] [nM]	IC50 (H+,K+-ATPase) [nM]	bioavailability [3] [%]	Compound	mean percentage inhibition of histamine-stimulated acid secretion [4] [%]
218				CS(=O)(=O)O.Cc1cccc(C)c1CNc1cc(C(=O)NC[C@H](C)O)cn2c(C)c(C)nc12 [8-[(2,6-dimethylbenyl)amino]-N-[(2S)-2-hydroxypropyl]-2,3-dimethylimidazo[1,2-a]pyridine-6-carboxamide mesylate salt]	
	280	750	61	Cc1cccc(C)c1CNc1cc(C(=O)NCCO)cn2c(C)c(C)nc12 [8-[(2,6-dimethylbenzyl)amino]-N-(2-hydroxyethyl)-2,3-dimethylimidazo[1,2-a]pyridine-6-carboxamide, reference compound]	
48 (≈ 18.3 µg/mL)	260	690		Cc1cccc(C)c1CNc1cc(C(=O)NC[C@H](C)O)cn2c(C)c(C)nc12 [compound of the invention, 8-[(2,6-dimethylbenzyl)amino]-N-[(2S)-2-hydroxypropyl]-2,3-dimethylimidazo[1,2-a]pyridine-6-carboxamide]	91
